Measured values: US20220389057A1, “ENDOCYTOSIS ROUTING SEQUENCE PEPTIDE FOR CELL DELIVERY SYSTEMS” (SZEGEDI TUDOMÁNYEGYETEM, priority 2019, published 2022)
Like-named read-outs stand apart in the source and are kept apart here.

Assay: Isothermal titration calorimetry (ITC), binding to ganglioside GM1
Conditions: Table 1, pH 7.2, 35° C.
Description: Isothermal calorimetric titrations (ITC) were performed with a MicroCal VP-ITC microcalorimeter in pH 7.2 phosphate buffer solution. In individual titrations, 15 μL GM1:DPC 1:5 containing solution was injected from the computer-controlled […] microsyringe at intervals of 300 s into the ligand solution, dissolved in the same buffer as the GM1. All measurements were carried out at 35° C. The ligands concentration in the cell was 15 μM, and the concentration of GM1 in the syringe was 300 μM. Control experiments were performed by injecting GM1 into the cell containing buffer but no ligands Experiments were repeated twice. The experimental data were fitted to the one binding site or two independent sites model (adjustable parameters: ΔHb1, Kd1, n1 and ΔHb2, Kd2, n2) using a nonlinear least-squares procedure. Errors were calculated by jackknife resampling.
Binding of Trp-Tyr-Lys-Tyr-Trp (WYKYW) and analogues to various ganglioside derivatives was tested as described under “Isothermal Titration calorimetry” to explore the specificity of the interaction between WYKYW and GM1. Affinity data for binding between WYKYW and various ganglioside derivatives (FIG. 1), and for binding between various mutated sequences of WYKYW and GM1 (Table 1) were obtained by Isothermal Titration calorimetry as described in Example 1 (General methods).

[1] = first binding step, read-out: KD1/nM
[2] = second binding step, read-out: KD2/nM

| Compound | Kd [1] [nM] | KD1/nM (first binding step) | Kd [2] [nM] |
| --- | --- | --- | --- |
| AYKYW [Ala point mutation of WYKYW] |  | not fittable |  |
| Trp-Tyr-Lys-β^3-homo-Tyr-Trp [WYKbYW] | 40 |  | 1200 |
| Trp-β^3-homo-Tyr-Lys-Tyr-Trp [WbYKYW] | 60 |  | 1000 |
| WAKYW [Ala point mutation of WYKYW] | 5760 |  |  |
| WYAYW [Ala point mutation of WYKYW] | 10500 |  |  |
| β^3-homo-Trp-Tyr-Lys-Tyr-Trp [bWYKYW] | 4.3 |  | 2100 |

More lines, main results first:

| Kd [1] [nM] | KD1/nM (first binding step) | Compound | Kd [2] [nM] |
| --- | --- | --- | --- |
| 3930 |  | NCCCC[C@H](NC(=O)[C@H](Cc1ccc(O)cc1)NC(=O)[C@@H](N)Cc1c[nH]c2ccccc12)C(=O)N[C@@H](Cc1ccc(O)cc1)C(=O)N[C@H](Cc1c[nH]c2ccccc12)C(N)=O [WYKYw] |  |
| 3240 |  | NCCCC[C@H](NC(=O)[C@H](Cc1ccc(O)cc1)NC(=O)[C@@H](N)Cc1c[nH]c2ccccc12)C(=O)N[C@H](Cc1ccc(O)cc1)C(=O)N[C@@H](Cc1c[nH]c2ccccc12)C(N)=O [WYKyW] |  |
| 4520 |  | NCCCC[C@@H](NC(=O)[C@H](Cc1ccc(O)cc1)NC(=O)[C@@H](N)Cc1c[nH]c2ccccc12)C(=O)N[C@@H](Cc1ccc(O)cc1)C(=O)N[C@@H](Cc1c[nH]c2ccccc12)C(N)=O [WYkYW] |  |
| 892 |  | NCCCC[C@H](NC(=O)[C@@H](Cc1ccc(O)cc1)NC(=O)[C@@H](N)Cc1c[nH]c2ccccc12)C(=O)N[C@@H](Cc1ccc(O)cc1)C(=O)N[C@@H](Cc1c[nH]c2ccccc12)C(N)=O [WyKYW] |  |
| 881 |  | NCCCC[C@H](NC(=O)[C@H](Cc1ccc(O)cc1)NC(=O)[C@H](N)Cc1c[nH]c2ccccc12)C(=O)N[C@@H](Cc1ccc(O)cc1)C(=O)N[C@@H](Cc1c[nH]c2ccccc12)C(N)=O [wYKYW] |  |
| 1690 |  | WYKAW [Ala point mutation of WYKYW] |  |
| 1060 |  | WYKYA [Ala point mutation of WYKYW] |  |
